Experimental findings from publication PMC7684578, “Isopedopeptins A–H: Cationic Cyclic Lipodepsipeptides from Pedobacter cryoconitis UP508 Targeting WHO Top-Priority Carbapenem-Resistant Bacteria” (ACS Chemical Biology, 2020) are described below.

In data set [1] the test system is HepG2 cells. The data set can be described thus: In vitro cytotoxicity, fluorometric microculture cytotoxicity assay. It is filed as cell-based. As to conditions: Homo sapiens, HepG2 liver, 72 h. On the procedure:
10^8 CFU/mL) with turbidity assessed using a Sensititre Nephelometer (Trek Diagnostics Systems Ltd, UK). 50 µL of this bacterial suspension was transferred to 10 mL of MHII broth to give a final bacterial concentration ≅ 5 × 10^5 CFU/mL (acceptable range 3 – 7 × 10^5 CFU/mL). 50 µL of bacterial suspension was pipetted into each well (except the medium control well, where 50 µL MHII was pipetted). Final volume in each well was 100 µL. Plates were covered and incubated without shaking for 18-20 h at 35 °C ± 2 °C. MIC was read visually, as complete inhibition of growth by the unaided eye, using the medium-only wells as the control. Each compound was assayed at least in duplicate.
Additionally, the MIC for compound 2 against clinical carbapenem-resistant strains of A. baumannii […]
determined at the Public Health Agency of Sweden (according to EUCAST recommendations).
In vitro Cytotoxicity Determination. In vitro cytotoxicity was determined by a fluorometric microculture cytotoxicity assay,7 based on hydrolysis of fluorescein diacetate to fluorescein by cells with intact plasma membranes. In short, HepG2 cells (hepatocellular carcinoma cells, ATCC), in Eagle's Minimum Essential Medium (ATCC) supplemented with 10 % fetal bovine serum, penicillin/streptomycin (100 U/100 µg/mL) and 2 mM L-glutamine, were seeded in 384-well assay plates at a density of 1000 cells/well. The cells were incubated over night at 37°C and compounds in 10 mM DMSO were added, to obtain final concentrations 64 µM – 0.25 µM in two-fold dilutions.
After incubation for 72 h at 37°C, the cells were pelleted and washed. Fluorescein diacetate was added (1 µL, 0.5 mg/mL) and the fluorescence [485 nm(exc)/530 nm(em.)] was measured after 50 min at 37°C. Bortezomib (2 µM) was used as positive control and dose response testing of doxorubicin (top concentration 2 µM) was performed repeatedly to follow assay performance over time. Cytotoxicity was assessed after 72 h with cell survival presented as survival index (SI, %) defined as fluorescence in test wells in percent of control cultures with blank values subtracted.
Criteria for a successful assay include a signal-to-noise ratio in control cultures >10, CV <30% and a 7 Lindhagen, E., Nygren, P., and Larsson, R. (2008) The fluorometric microculture cytotoxicity assay. Nat. […]
(§1) positive control (Bortezomib) SI of <5%. The half maximal inhibitory concentration (IC50) was determined from log concentration-effect curves using non-linear regression analysis.
(§2) Frequency of resistance (FoR). For the determination of the FoR, the MIC of compound 2 was first evaluated on solid MH-agar medium prepared in 35 mm diameter plates. Each plate contained 4 mL agar with the appropriate amount of compound. Bacterial cultures were grown and prepared as described for the MIC assay. 13 µL of bacterial culture diluted to 0.5 MacFarland was inoculated into 1 mL 0.9% NaCl resulting in ~2 × 10^6 CFU/mL. 5 µL of this bacterial suspension was spotted onto the surface of each agar plate (~10^4 CFU/spot). Plates were sealed and incubated at 37°C for 18–20 hours. Agar MIC was recorded according to CLSI guidelines as the lowest concentration of […]
faint haze caused by the inoculum. Then 9 cm plates were prepared with 25 mL MHII agar medium containing 4 × or 8 × solid MIC concentrations of test compounds and seeded with 100 µL of a bacterial preparation, concentrated by centrifugation from overnight cultures and resuspended in 0.9% NaCl, corresponding to 108 CFU and 109 CFU per plate, and spread on the agar using 4–5 glass beads of 4 mm diameter. Since CFU were evaluated using the McFarland turbidity standard, the exact CFU number plated was evaluated by plating of serial dilutions of each inoculum preparation on MHII agar plates. Plates were incubated at 37°C and colonies were counted at 24 h and 48 h post-plating. The frequencies of resistance were then calculated by counting the number of validated resistant colonies growing on antibiotic preparations divided by the evaluated number of CFU in the inoculum. […]

Data set [2] is described as follows: in vitro. It is filed as cell-based. The note with it: human, pH 7.4, Hemolysis (%). On the procedure:
as §1, §2
faint haze caused by the inoculum. Then 9 cm plates were prepared with 25 mL MHII agar medium containing 4 × or 8 × solid MIC concentrations of test compounds and seeded with 100 µL of a bacterial preparation, concentrated by centrifugation from overnight cultures and resuspended in 0.9% NaCl, corresponding to 108 CFU and 109 CFU per plate, and spread on the agar using 4–5 glass beads of 4 mm diameter. Since CFU were evaluated using the McFarland turbidity standard, the exact CFU number plated was evaluated by plating of serial dilutions of each inoculum preparation on MHII agar plates. Plates were incubated at 37°C and colonies were counted at 24 h and 48 h post-plating. The frequencies of resistance were then calculated by counting the number of validated resistant colonies growing on antibiotic preparations divided by the evaluated number of CFU in the inoculum.
Hemolysis assay. Compounds were evaluated for hemolytic activity using red blood cells from heparinized human blood. Red blood cells (RBC) were washed three times in Tyrode buffer (130 mM NaCl, 4 mM KCl, 2.8 mM NaOAc, 1 mM MgCl2, 10 mM HEPES, 10 mM glucose, 1 mM CaCl2, adjusted to pH 7.4) and resuspended in the same buffer. Final concentrations in the hemolysis assay were: 100 µM compound, 1% DMSO, and 50% RBC, assayed in a 200 µL volume in a microtiter plate. The mixture was incubated at 37 °C for 45 min with shaking (250 rpm). After incubation, RBCs were removed by centrifugation (1000 × g for 10 min), 100 µL clear plasma was transferred to a fresh microtiter plate, and the amount of hemoglobin measured using a spectrophotometer at 540 nm. The […]
complete lysis control contained 2% Triton X-100 (in Tyrode buffer) instead of compound; the negative control contained Tyrode buffer but no compound. Percent hemolysis was calculated as:
[Abs compound] - [Abs negative control] / [Abs complete lysis control] - [Abs negative control] ×
100. Values greater than 1% hemolysis at 100 µM were regarded as a red flag.
Bacterial membrane permeabilization assay. Liposomes were manufactured and permeabilization assayed as described previously.8 Briefly, dry lipid films of E. coli polar lipid extract were formed on round-bottom flask walls. This was achieved by dissolving lipids in chloroform and evaporating the solvent under agitation and nitrogen gas flow, followed by incubation in vacuum chamber. Lipid films were re-suspended by 30 min stirring (E. coli) at 55°C in an aqueous solution of 100 mM 5(6)-carboxyfluorescein in 10 mM Tris buffer (set to pH 7.4 at 37°C). Suspensions were subjected to repeated extrusion through a 100 nm pore size polycarbonate membrane in order to reduce multilamellar structures and polydispersity. Un-trapped carboxyfluorescein was removed by gel filtration. Membrane permeability was measured by monitoring carboxyfluorescein efflux from the liposomes to the external low concentration environment, resulting in loss of self-quenching and an increased fluorescence signal. The 96-well plates were prepared with a 2-fold serial dilution of the samples in Tris buffer, as well as negative controls (background) and 0.16% Triton X-100 (maximum […]
leakage). […]

Where two headings read alike, the source gives them in different places. Starred links: 1 amine or outer side, 2 acyl side, 3 side chain; linkers in the order of their positions; H or OH if unused. Positions of bridges follow the written chain, without caps; N, C: chain ends. Non-standard residues stand in square brackets, D forms with d. Residues, ends and D or L forms follow the SMILES beside them. X4 = CC(C)CCC=CCCC[C@H](CC(=O)[*:1])O[*:2]; X6 = CC(C)CCCCC=CC[C@H](CC(=O)[*:1])O[*:2]; X5 = CC(C)CCCCCCC[C@H](CC(=O)[*:1])O[*:2]; X3 = CC(C)CCCCC[C@H](CC(=O)[*:1])O[*:2]; X7 = CCCCCCC=CC[C@H](CC(=O)[*:1])O[*:2]; X2 = CCCCCCC[C@H](CC(=O)[*:1])O[*:2]; Val(3-OH) = CC(C)(O)[C@H](N)C(=O)O; X1 = C/C=C(/N[*:1])C(=O)[*:2]; Dab = NCC[C@H](N)C(=O)O; Dap = NC[C@H](N)C(=O)O Where only a bound is given, the exact number is not on record here.

Turning to `C/C=C1/NC(=O)[C@H](CCN)NC(=O)[C@H](CC(C)C)NC(=O)[C@H](CN)NC(=O)C[C@@H](CCCCCCC)OC(=O)[C@H](CC(=O)O)NC(=O)[C@H](C(C)C)NC(=O)[C@@H](Cc2ccccc2)NC(=O)[C@H](CN)NC(=O)[C@H]([C@@H](C)O)NC1=O` [Compound 4, isopedopeptin D] ([Dap]L[Dab][X1]T[Dap][dF]VD; linker N-C via X2), the IC50 in data set [1] (read-out: IC50(μM) HepG2) was 9 µM; in data set [1] (read-out: IC50(μg/mL) HepG2), 10 µg/mL. Further, the hemolysis at 45 min, 100 µM in data set [2] was 9.1%.
Consider `C/C=C1/NC(=O)[C@H](CCN)NC(=O)[C@H](CC(C)C)NC(=O)[C@H](CN)NC(=O)C[C@@H](CCCCCCCC(C)C)OC(=O)[C@H](CC(=O)O)NC(=O)[C@H](C(C)(C)O)NC(=O)[C@@H](Cc2ccccc2)NC(=O)[C@H](CN)NC(=O)[C@H]([C@@H](C)O)NC1=O` [Compound 6, Isopedopeptin F] ([Dap]L[Dab][X1]T[Dap][dF][Val(3-OH)]D; linker N-C via X5), for which the IC50 came out at 9 µM in data set [1] (read-out: IC50(μM) HepG2) and 10 µg/mL in data set [1] (read-out: IC50(μg/mL) HepG2). In data set [2], this compound registered a hemolysis at 45 min, 100 µM of 27.5%.
The like results for `C/C=C1/NC(=O)[C@H](CCN)NC(=O)[C@H](CC(C)C)NC(=O)[C@H](CN)NC(=O)C[C@@H](CCCCCC(C)C)OC(=O)[C@H](CC(=O)O)NC(=O)[C@H](C(C)C)NC(=O)[C@@H](Cc2ccccc2)NC(=O)[C@H](CN)NC(=O)[C@H]([C@@H](C)O)NC1=O` [Compound 5, Isopedopeptin E] ([Dap]L[Dab][X1]T[Dap][dF]VD; linker N-C via X3) were, in that order, 13 µM, 14 µg/mL and 5.2%.
The matching figures for `C/C=C1/NC(=O)[C@H](CCN)NC(=O)[C@H](CC(C)C)NC(=O)[C@H](CN)NC(=O)C[C@@H](CC=CCCCCC(C)C)OC(=O)[C@H](CC(=O)O)NC(=O)[C@H](C(C)C)NC(=O)[C@@H](Cc2ccccc2)NC(=O)[C@H](CN)NC(=O)[C@H]([C@@H](C)O)NC1=O` [Compound 8, Isopedopeptin H] ([Dap]L[Dab][X1]T[Dap][dF]VD; linker N-C via X6): 14 µM, 16 µg/mL and 52.3%.
The like results for `C/C=C1/NC(=O)[C@H](CCN)NC(=O)[C@H](CC(C)C)NC(=O)[C@H](CN)NC(=O)C[C@@H](CCCC=CCCC(C)C)OC(=O)[C@H](CC(=O)O)NC(=O)[C@H](C(C)C)NC(=O)[C@@H](Cc2ccccc2)NC(=O)[C@H](CN)NC(=O)[C@H]([C@@H](C)O)NC1=O` [Compound 7, Isopedopeptin G] ([Dap]L[Dab][X1]T[Dap][dF]VD; linker N-C via X4) were, in that order, 11 µM, 13 µg/mL and 14.1%.
On to `C/C=C1/NC(=O)[C@H](CCN)NC(=O)[C@H](CC(C)C)NC(=O)[C@H](CN)NC(=O)C[C@@H](CCCCCC(C)C)OC(=O)[C@H](CC(=O)O)NC(=O)[C@H](C(C)(C)O)NC(=O)[C@@H](Cc2ccccc2)NC(=O)[C@H](CN)NC(=O)[C@H]([C@@H](C)O)NC1=O` [Compound 1, cyclo(3-hydroxy-9-methyldecanoyl-DAPA1-Leu-DABA-ABA-Thr-DAPA2-Phe-OHVal-Asp)] ([Dap]L[Dab][X1]T[Dap][dF][Val(3-OH)]D; linker N-C via X3), for which the IC50 is 29 µM in data set [1] (read-out: IC50(μM) HepG2) and 33 µg/mL in data set [1] (read-out: IC50(μg/mL) HepG2). For the same compound, in data set [2], the hemolysis at 45 min, 100 µM stood at 4.2%.
The matching figures for `C/C=C1/NC(=O)[C@H](CCN)NC(=O)[C@H](CC(C)C)NC(=O)[C@H](CN)NC(=O)C[C@@H](CCCCCCC)OC(=O)[C@H](CC(=O)O)NC(=O)[C@H](C(C)(C)O)NC(=O)[C@@H](Cc2ccccc2)NC(=O)[C@H](CN)NC(=O)[C@H]([C@@H](C)O)NC1=O` [Compound 2, isopedopeptin B] ([Dap]L[Dab][X1]T[Dap][dF][Val(3-OH)]D; linker N-C via X2): 50 µM, 56 µg/mL and below 0.8%.
Take `C/C=C1/NC(=O)[C@H](CCN)NC(=O)[C@H](CC(C)C)NC(=O)[C@H](CN)NC(=O)C[C@@H](CC=CCCCCCC)OC(=O)[C@H](CC(=O)O)NC(=O)[C@H](C(C)(C)O)NC(=O)[C@@H](Cc2ccccc2)NC(=O)[C@H](CN)NC(=O)[C@H]([C@@H](C)O)NC1=O` [Compound 3, isopedopeptin C] ([Dap]L[Dab][X1]T[Dap][dF][Val(3-OH)]D; linker N-C via X7): the IC50 in data set [1] (read-out: IC50(μM) HepG2) was found to be 29 µM; in data set [1] (read-out: IC50(μg/mL) HepG2), 33 µg/mL. Moreover, the hemolysis at 45 min, 100 µM in data set [2] was 3%.
